Results as given in ChEMBL document CHEMBL4507304, “Data for DCP probe TP-021” (2021).

How the values were obtained:
[1] = system: Tyrosine-protein kinase ABL1 (Homo sapiens), P00519 [T315I]; conditions: Compound concentration 1000.0 nM
[2] = target: RAC-beta serine/threonine-protein kinase (Homo sapiens) (UniProt P31751); conditions: Compound concentration 1000.0 nM
[3] = target: 5'-AMP-activated protein kinase catalytic subunit alpha-1 (Homo sapiens) (UniProt Q13131); conditions: Compound concentration 1000.0 nM
Sequence of 5'-AMP-activated protein kinase catalytic subunit alpha-1 (Homo sapiens) (Q13131 whole entry, looked up): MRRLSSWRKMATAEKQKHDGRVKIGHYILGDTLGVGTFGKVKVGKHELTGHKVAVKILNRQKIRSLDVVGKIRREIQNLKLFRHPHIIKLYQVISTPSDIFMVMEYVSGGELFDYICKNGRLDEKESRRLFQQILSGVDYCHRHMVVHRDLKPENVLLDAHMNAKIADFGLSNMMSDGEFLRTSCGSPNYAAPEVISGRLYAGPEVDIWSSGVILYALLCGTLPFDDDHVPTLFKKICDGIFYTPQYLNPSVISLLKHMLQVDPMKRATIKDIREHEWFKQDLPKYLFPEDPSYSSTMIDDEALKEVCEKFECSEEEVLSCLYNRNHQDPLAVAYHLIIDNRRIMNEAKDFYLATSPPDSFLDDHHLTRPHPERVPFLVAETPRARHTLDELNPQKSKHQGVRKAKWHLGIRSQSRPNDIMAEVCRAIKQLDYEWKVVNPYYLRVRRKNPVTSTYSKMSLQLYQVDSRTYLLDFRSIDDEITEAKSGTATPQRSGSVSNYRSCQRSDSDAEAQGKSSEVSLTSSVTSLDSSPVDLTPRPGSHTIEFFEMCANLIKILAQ

[4] = target: Mitogen-activated protein kinase kinase kinase 6 (Homo sapiens) (UniProt O95382); conditions: Compound concentration 1000.0 nM
[5] = target: Calcium/calmodulin-dependent protein kinase type II subunit gamma (Homo sapiens) (UniProt Q13555); conditions: Compound concentration 1000.0 nM
[6] = target: Cyclin-dependent kinase 8 (Homo sapiens) (UniProt P49336); conditions: Compound concentration 1000.0 nM
[7] = target: Cyclin-dependent kinase 9 (Homo sapiens) (UniProt P50750); conditions: Compound concentration 1000.0 nM
[8] = target: Casein kinase I isoform alpha-like (Homo sapiens) (UniProt Q8N752); conditions: Compound concentration 1000.0 nM
[9] = target: Casein kinase I isoform gamma-3 (Homo sapiens) (UniProt Q9Y6M4); conditions: Compound concentration 1000.0 nM
[10] = target: Mitogen-activated protein kinase kinase kinase 12 (Homo sapiens) (UniProt Q12852); conditions: Compound concentration 1000.0 nM
[11] = target: Serine/threonine-protein kinase MRCK gamma (Homo sapiens) (UniProt Q6DT37); conditions: Compound concentration 1000.0 nM
[12] = target: Serine/threonine-protein kinase 17A (Homo sapiens) (UniProt Q9UEE5); conditions: Compound concentration 1000.0 nM
[13] = target: Serine/threonine-protein kinase 17B (Homo sapiens) (UniProt O94768); conditions: Compound concentration 1000.0 nM
Sequence of Serine/threonine-protein kinase 17B (Homo sapiens) (O94768 whole entry): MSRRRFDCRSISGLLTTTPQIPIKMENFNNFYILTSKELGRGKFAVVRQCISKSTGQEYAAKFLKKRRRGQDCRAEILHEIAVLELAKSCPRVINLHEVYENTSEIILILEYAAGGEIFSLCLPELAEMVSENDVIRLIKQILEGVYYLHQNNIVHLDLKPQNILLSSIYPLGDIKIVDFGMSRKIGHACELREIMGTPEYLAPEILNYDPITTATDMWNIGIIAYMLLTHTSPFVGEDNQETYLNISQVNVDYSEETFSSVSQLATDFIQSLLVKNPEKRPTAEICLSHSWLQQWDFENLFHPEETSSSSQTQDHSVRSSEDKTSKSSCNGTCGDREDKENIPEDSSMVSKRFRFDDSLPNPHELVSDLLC

[14] = system: Epidermal growth factor receptor (Homo sapiens), P00533 [UNDEFINED MUTATION]; conditions: Compound concentration 1000.0 nM
[15] = target: Tyrosine-protein kinase Fgr (Homo sapiens) (UniProt P09769); conditions: Compound concentration 1000.0 nM
[16] = target: Vascular endothelial growth factor receptor 1 (Homo sapiens) (UniProt P17948); conditions: Compound concentration 1000.0 nM
[17] = system: Receptor-type tyrosine-protein kinase FLT3 (Homo sapiens), P36888 [D835V]; conditions: Compound concentration 1000.0 nM
[18] = target: Rhodopsin kinase GRK1 (Homo sapiens) (UniProt Q15835); conditions: Compound concentration 1000.0 nM
[19] = target: Glycogen synthase kinase-3 alpha (Homo sapiens) (UniProt P49840); conditions: Compound concentration 1000.0 nM
[20] = target: Insulin receptor (Homo sapiens) (UniProt P06213); conditions: Compound concentration 1000.0 nM
Sequence of Insulin receptor (Homo sapiens) (P06213 28-758 limits assumed): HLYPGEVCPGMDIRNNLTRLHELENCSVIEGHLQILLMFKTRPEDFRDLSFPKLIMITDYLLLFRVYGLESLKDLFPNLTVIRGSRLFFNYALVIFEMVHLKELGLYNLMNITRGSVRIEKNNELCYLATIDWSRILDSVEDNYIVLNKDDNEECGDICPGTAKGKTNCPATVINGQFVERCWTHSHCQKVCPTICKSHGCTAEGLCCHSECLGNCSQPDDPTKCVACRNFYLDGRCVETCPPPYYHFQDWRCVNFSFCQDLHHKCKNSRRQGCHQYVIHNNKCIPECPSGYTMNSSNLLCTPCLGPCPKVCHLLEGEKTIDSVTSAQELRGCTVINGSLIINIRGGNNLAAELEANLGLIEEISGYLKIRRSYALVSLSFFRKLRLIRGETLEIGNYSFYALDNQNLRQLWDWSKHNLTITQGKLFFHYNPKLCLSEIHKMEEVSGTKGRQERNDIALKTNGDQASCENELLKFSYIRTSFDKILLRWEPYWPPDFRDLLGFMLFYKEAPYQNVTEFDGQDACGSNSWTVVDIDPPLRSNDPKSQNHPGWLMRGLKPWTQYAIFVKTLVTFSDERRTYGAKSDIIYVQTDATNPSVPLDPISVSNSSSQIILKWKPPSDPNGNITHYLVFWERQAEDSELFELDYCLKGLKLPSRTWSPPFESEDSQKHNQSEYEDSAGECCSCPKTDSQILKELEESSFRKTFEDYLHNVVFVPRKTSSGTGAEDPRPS
Sequence of Insulin receptor (Homo sapiens) (P06213 763-1382 limits assumed): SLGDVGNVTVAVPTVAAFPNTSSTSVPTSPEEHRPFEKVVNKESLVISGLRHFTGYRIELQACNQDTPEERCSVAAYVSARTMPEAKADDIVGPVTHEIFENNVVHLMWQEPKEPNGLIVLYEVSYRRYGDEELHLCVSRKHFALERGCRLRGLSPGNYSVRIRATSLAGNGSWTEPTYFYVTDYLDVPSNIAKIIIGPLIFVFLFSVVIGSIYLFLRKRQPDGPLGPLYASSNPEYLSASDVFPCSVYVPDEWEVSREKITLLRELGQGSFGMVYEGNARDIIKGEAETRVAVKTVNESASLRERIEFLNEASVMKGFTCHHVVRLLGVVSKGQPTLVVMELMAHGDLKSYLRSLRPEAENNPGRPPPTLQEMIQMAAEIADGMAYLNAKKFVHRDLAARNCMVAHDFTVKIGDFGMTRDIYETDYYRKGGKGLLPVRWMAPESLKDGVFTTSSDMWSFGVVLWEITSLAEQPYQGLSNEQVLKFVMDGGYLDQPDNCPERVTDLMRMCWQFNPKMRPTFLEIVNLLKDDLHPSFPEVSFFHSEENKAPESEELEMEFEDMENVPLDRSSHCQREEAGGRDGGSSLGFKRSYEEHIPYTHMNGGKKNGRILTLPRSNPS

[21] = target: MAP kinase-activated protein kinase 2 (Homo sapiens) (UniProt P49137); conditions: Compound concentration 1000.0 nM
[22] = target: MAP kinase-activated protein kinase 5 (Homo sapiens) (UniProt Q8IW41); conditions: Compound concentration 1000.0 nM
[23] = target: Dual specificity mitogen-activated protein kinase kinase 2 (Homo sapiens) (UniProt P36507); conditions: Compound concentration 1000.0 nM
[24] = target: Maternal embryonic leucine zipper kinase (Homo sapiens) (UniProt Q14680); conditions: Compound concentration 1000.0 nM
[25] = target: Hepatocyte growth factor receptor (Homo sapiens) (UniProt P08581); conditions: Compound concentration 1000.0 nM
[26] = target: Serine/threonine-protein kinase NIM1 (Homo sapiens) (UniProt Q8IY84); conditions: Compound concentration 1000.0 nM
[27] = target: Serine/threonine-protein kinase OSR1 (Homo sapiens) (UniProt O95747); conditions: Compound concentration 1000.0 nM
[28] = target: Mitogen-activated protein kinase 13 (Homo sapiens) (UniProt O15264); conditions: Compound concentration 1000.0 nM
[29] = target: Serine/threonine-protein kinase PLK3 (Homo sapiens) (UniProt Q9H4B4); conditions: Compound concentration 1000.0 nM
Sequence of Serine/threonine-protein kinase PLK3 (Homo sapiens) (Q9H4B4 whole entry, looked up): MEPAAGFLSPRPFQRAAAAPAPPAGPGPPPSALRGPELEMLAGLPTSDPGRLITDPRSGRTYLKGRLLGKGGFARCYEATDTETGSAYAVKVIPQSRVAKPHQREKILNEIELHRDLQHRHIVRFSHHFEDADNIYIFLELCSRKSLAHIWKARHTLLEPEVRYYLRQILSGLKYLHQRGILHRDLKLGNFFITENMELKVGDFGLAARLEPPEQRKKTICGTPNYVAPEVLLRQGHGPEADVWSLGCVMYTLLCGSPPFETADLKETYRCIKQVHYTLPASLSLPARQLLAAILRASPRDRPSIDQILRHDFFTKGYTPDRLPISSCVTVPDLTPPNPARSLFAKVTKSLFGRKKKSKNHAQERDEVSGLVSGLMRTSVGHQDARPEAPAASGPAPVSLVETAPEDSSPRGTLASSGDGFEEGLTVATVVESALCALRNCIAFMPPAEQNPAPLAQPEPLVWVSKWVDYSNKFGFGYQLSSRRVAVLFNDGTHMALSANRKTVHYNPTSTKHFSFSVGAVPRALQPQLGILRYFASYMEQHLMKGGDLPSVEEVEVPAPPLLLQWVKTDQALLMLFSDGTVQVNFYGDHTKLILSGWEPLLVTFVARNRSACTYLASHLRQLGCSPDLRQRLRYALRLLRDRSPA

[30] = target: Protein kinase C delta type (Homo sapiens) (UniProt Q05655); conditions: Compound concentration 1000.0 nM
[31] = target: Serine/threonine-protein kinase D3 (Homo sapiens) (UniProt O94806); conditions: Compound concentration 1000.0 nM
[32] = target: cAMP-dependent protein kinase catalytic subunit PRKX (Homo sapiens) (UniProt P51817); conditions: Compound concentration 1000.0 nM
Sequence of cAMP-dependent protein kinase catalytic subunit PRKX (Homo sapiens) (P51817 whole entry): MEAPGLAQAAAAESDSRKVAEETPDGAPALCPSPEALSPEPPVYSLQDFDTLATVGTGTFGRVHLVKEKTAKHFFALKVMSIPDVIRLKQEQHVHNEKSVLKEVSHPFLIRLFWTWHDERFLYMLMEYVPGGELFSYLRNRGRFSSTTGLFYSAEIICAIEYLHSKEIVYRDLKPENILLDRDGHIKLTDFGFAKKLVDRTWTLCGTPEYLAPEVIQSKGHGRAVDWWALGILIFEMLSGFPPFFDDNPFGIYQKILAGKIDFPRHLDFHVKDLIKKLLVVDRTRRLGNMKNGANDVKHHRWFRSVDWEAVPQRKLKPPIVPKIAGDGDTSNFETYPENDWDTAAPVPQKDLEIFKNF

[33] = target: Serine/threonine-protein kinase SIK3 (Homo sapiens) (UniProt Q9Y2K2); conditions: Compound concentration 1000.0 nM
[34] = target: Serine/threonine-protein kinase RIO3 (Homo sapiens) (UniProt O14730); conditions: Compound concentration 1000.0 nM
[35] = target: Dual serine/threonine and tyrosine protein kinase (Homo sapiens) (UniProt Q6XUX3); conditions: Compound concentration 1000.0 nM
Sequence of Dual serine/threonine and tyrosine protein kinase (Homo sapiens) (Q6XUX3 whole entry): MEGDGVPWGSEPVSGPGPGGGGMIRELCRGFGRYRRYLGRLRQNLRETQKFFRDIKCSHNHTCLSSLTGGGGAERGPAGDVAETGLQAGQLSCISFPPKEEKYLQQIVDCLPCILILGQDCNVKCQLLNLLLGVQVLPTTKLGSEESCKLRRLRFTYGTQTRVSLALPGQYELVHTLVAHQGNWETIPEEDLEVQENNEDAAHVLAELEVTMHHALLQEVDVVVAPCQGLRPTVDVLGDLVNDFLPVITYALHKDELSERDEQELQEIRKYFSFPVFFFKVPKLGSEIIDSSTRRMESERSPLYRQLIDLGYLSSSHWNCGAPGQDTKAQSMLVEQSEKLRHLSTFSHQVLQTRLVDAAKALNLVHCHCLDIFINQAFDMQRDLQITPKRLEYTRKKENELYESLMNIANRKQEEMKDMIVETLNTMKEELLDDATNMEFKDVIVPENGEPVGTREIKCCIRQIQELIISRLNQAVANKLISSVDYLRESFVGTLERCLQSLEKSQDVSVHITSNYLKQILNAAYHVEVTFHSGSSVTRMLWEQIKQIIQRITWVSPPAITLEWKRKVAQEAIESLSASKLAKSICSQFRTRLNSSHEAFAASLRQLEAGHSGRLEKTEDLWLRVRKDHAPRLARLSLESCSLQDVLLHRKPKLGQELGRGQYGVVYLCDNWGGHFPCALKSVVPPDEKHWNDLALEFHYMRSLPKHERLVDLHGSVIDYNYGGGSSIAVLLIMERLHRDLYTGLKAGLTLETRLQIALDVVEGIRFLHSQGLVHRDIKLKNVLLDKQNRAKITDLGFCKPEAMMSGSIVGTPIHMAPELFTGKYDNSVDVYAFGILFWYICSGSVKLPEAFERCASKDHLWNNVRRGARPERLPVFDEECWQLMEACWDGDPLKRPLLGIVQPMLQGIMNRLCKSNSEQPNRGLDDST

[36] = target: Ribosomal protein S6 kinase alpha-2 (Homo sapiens) (UniProt Q15349); conditions: Compound concentration 1000.0 nM
[37] = target: Ribosomal protein S6 kinase alpha-6 (Homo sapiens) (UniProt Q9UK32); conditions: Compound concentration 1000.0 nM
Sequence of Ribosomal protein S6 kinase alpha-6 (Homo sapiens) (Q9UK32 whole entry): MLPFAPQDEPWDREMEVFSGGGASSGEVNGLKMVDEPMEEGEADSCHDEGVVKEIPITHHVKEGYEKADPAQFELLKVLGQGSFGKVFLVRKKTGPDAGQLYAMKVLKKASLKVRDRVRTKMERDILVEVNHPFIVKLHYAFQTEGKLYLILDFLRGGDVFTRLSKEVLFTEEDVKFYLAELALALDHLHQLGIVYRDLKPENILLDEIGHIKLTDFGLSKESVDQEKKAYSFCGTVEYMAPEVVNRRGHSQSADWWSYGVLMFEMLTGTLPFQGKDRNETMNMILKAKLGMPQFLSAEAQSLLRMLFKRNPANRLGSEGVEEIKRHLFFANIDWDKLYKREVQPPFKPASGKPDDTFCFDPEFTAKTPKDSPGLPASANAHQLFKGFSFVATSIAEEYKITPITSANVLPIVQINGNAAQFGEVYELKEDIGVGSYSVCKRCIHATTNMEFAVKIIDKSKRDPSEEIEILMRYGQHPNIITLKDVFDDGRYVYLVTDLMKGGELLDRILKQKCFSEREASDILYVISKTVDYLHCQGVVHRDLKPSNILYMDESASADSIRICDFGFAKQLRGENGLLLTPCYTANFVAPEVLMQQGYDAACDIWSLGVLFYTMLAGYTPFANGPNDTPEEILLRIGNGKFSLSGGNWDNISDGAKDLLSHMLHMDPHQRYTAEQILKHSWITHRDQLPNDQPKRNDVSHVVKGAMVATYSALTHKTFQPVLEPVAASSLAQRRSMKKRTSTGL

[38] = target: Serine/threonine-protein kinase TAO2 (Homo sapiens) (UniProt Q9UL54); conditions: Compound concentration 1000.0 nM
[39] = target: Non-receptor tyrosine-protein kinase TNK1 (Homo sapiens) (UniProt Q13470); conditions: Compound concentration 1000.0 nM
[40] = target: Tyrosine-protein kinase receptor TYRO3 (Homo sapiens) (UniProt Q06418); conditions: Compound concentration 1000.0 nM
[41] = target: Serine/threonine-protein kinase ULK3 (Homo sapiens) (UniProt Q6PHR2); conditions: Compound concentration 1000.0 nM
[42] = target: Serine/threonine-protein kinase VRK2 (Homo sapiens) (UniProt Q86Y07); conditions: Compound concentration 1000.0 nM
[43] = target: Serine/threonine-protein kinase 32C (Homo sapiens) (UniProt Q86UX6); conditions: Compound concentration 1000.0 nM
[44] = target: Sodium-dependent serotonin transporter (Homo sapiens) (UniProt P31645); conditions: Compound concentration 10.0 uM
[45] = target: Histamine H2 receptor (Homo sapiens) (UniProt P25021); conditions: Compound concentration 10.0 uM

N#Cc1ccc(Nc2ccc3[nH]c(=O)[nH]c3c2)c(Cl)c1
inactive: residual activity [1] 93% | residual activity [2] 89% | residual activity [3] 100% | residual activity [4] 100% | residual activity [5] 78% | residual activity [6] 100% | residual activity [7] 100% | residual activity [8] 100% | residual activity [9] 99% | residual activity [10] 100% | residual activity [11] 100% | residual activity [12] 94% | residual activity [13] 100% | residual activity [14] 62% | residual activity [15] 100% | residual activity [16] 100% | residual activity [17] 100% | residual activity [18] 100% | residual activity [19] 100% | residual activity [20] 95% | residual activity [21] 100% | residual activity [22] 92% | residual activity [23] 93% | residual activity [24] 95% | residual activity [25] 94% | residual activity [26] 100% | residual activity [27] 75% | residual activity [28] 100% | residual activity [29] 84% | residual activity [30] 100% | residual activity [31] 100% | residual activity [32] 100% | residual activity [33] 75% | residual activity [34] 100% | residual activity [35] 75% | residual activity [36] 100% | residual activity [37] 100% | residual activity [38] 100% | residual activity [39] 56% | residual activity [40] 62% | residual activity [41] 100% | residual activity [42] 100% | residual activity [43] 82% | inhibition [44] 21.1% | inhibition [45] 2.26%

O=C1CCc2cc(Nc3cc(OC4CCOCC4)c([N+](=O)[O-])cc3Cl)ccc2N1
inactive: residual activity [1] 80% | residual activity [2] 82% | residual activity [3] 100% | residual activity [4] 91% | residual activity [5] 100% | residual activity [6] 100% | residual activity [7] 97% | residual activity [8] 84% | residual activity [9] 67% | residual activity [10] 100% | residual activity [11] 99% | residual activity [12] 95% | residual activity [13] 100% | residual activity [14] 65% | residual activity [15] 100% | residual activity [16] 100% | residual activity [17] 70% | residual activity [18] 100% | residual activity [19] 100% | residual activity [20] 93% | residual activity [21] 99% | residual activity [22] 78% | residual activity [23] 73% | residual activity [24] 77% | residual activity [25] 80% | residual activity [26] 100% | residual activity [27] 83% | residual activity [28] 100% | residual activity [29] 88% | residual activity [30] 100% | residual activity [31] 92% | residual activity [32] 100% | residual activity [33] 75% | residual activity [34] 100% | residual activity [35] 90% | residual activity [36] 92% | residual activity [37] 91% | residual activity [38] 82% | residual activity [39] 87% | residual activity [40] 100% | residual activity [41] 100% | residual activity [42] 100% | residual activity [43] 83% | inhibition [44] 23.5% | inhibition [45] 20.6%
